Test results from PubChem BioAssay (NCI).
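All cell lines were grown in 96-well plates and treated with compound for 48 hours. Abbreviation: GI50, concentration required for 50% inhibition of growth. TGI: total growth inhibition.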 Where a SMILES comes first, the peptide text is derived from it. The star is where a group is joined. Palmitoyl = CCCCCCCCCCCCCCCC(=O)*

What was measured:
Experiment in all cases: NCI-60 cell line screen, 48 h
SK-OV-3 ovarian = system: SK-OV-3 ovarian
CAKI-1 renal = system: CAKI-1 renal
IGROV1 ovarian = system: IGROV1 ovarian
SW-620 colon = system: SW-620 colon
K-562 leukemia = system: K-562 leukemia
M14 melanoma = system: M14 melanoma
786-0 renal = system: 786-0 renal
PC-3 prostate = system: PC-3 prostate
TK-10 renal = system: TK-10 renal

Row | SMILES | GI50 (SK-OV-3 ovarian) [µM] | TGI (SK-OV-3 ovarian) [µM] | GI50 (CAKI-1 renal) [µM] | TGI (CAKI-1 renal) [µM] | GI50 (IGROV1 ovarian) [µM] | TGI (IGROV1 ovarian) [µM] | GI50 (SW-620 colon) [µM] | TGI (SW-620 colon) [µM] | GI50 (K-562 leukemia) [µM] | TGI (K-562 leukemia) [µM] | GI50 (M14 melanoma) [µM] | TGI (M14 melanoma) [µM] | TGI (786-0 renal) [µM] | TGI (PC-3 prostate) [µM] | TGI (TK-10 renal) [µM] | GI50 (PC-3 prostate) [µM]
1 | CCCCCCCCCCCCCCCC(=O)N1CCCC1C(=O)NCC(=O)NC(Cc1ccccc1)C(=O)N1CCCC1C(=O)NC(CO)C(=O)NC(Cc1ccc(O)cc1)C(=O)NC(CCCCN)C(=O)NC(CC(C)C)C(=O)NC(CCCN=C(N)N)C(=O)N1CCCC1C(=O)NCC(N)=O (stereo not drawn) (Palmitoyl-PGFPSYKLRPG-NH2; configuration not given here) | 23.2 | 48.1 | 20.9 | 50.6 | 18.6 | 48.8 | 25.5 | 73.9 | 14.3 | 38.5 | 14.2 | 27.3 | – | – | – | –
2 | CC12c3c4ccc(C=O)c3Oc3ccc(C=O)c(c31)Oc1ccc(C=O)c(c12)O4 | – | > 25 | – | > 25 | – | > 25 | – | > 25 | – | > 25 | – | > 25 | > 25 | > 25 | – | –
3 | Cc1ccnc(NC(=S)Nc2ccc([N+](=O)[O-])cc2)c1 | – | > 100 | – | – | – | > 100 | – | > 100 | – | > 100 | – | > 100 | > 100 | > 100 | > 100 | –
4 | O=C(CN1C(=O)CC(c2ccccc2)(c2ccccc2)C1=O)N1CCN(CCO)CC1 | – | > 100 | – | > 100 | – | > 100 | – | > 100 | – | > 100 | – | > 100 | > 100 | > 100 | > 100 | –
5 | O=[N+]([O-])c1cc2oc(CSc3ccccc3)nc2cc1Cl | – | 78.7 | – | > 100 | – | > 100 | – | > 100 | – | > 100 | – | > 100 | > 100 | > 100 | > 100 | –
6 | CC(C)(CO)CNc1nc(N)nc(Cl)c1/C=N/O | – | – | – | > 100 | – | 90.8 | – | > 100 | – | > 100 | – | – | > 100 | > 100 | > 100 | –
7 | COc1ccc2oc(=N)c(C(=O)Nc3ccccc3)cc2c1 | – | 39.7 | – | > 100 | – | 97.4 | – | 80.9 | – | 4.19 | – | > 100 | – | > 100 | > 100 | –
8 | C=C(C)[C@H]1C2=CC(C(=O)OC)=C(C[C@H](C(=C)C)[C@@H](O)[C@@H](O)C3=C[C@H]1OC3=O)O2 | – | > 100 | – | > 100 | – | > 100 | – | > 100 | – | > 100 | – | > 100 | > 100 | – | > 100 | –
9 | CN1CC[C@]2(c3cccc(O)c3)CC(=O)/C(=C/c3ccccc3)[C@@H]1C2 | – | – | – | 6.04 | – | 14.6 | – | 6.93 | – | 4.01 | – | 12.1 | 7.12 | 7.74 | 27.1 | –
10 | OC(C#CCN1CCCC1)(c1ccccc1)c1ccccc1Cl (stereo not drawn) | – | > 100 | – | 93.6 | – | 73.6 | – | 39.3 | – | > 100 | – | – | – | 80.2 | > 100 | –
11 | CCc1n[nH]c(=O)n1-c1ccc2ccccc2c1 | – | > 100 | – | > 100 | – | > 100 | – | > 100 | – | > 100 | – | > 100 | > 100 | – | > 100 | –
12 | O=C1CSC2(CC(/C=C/c3cccs3)=NN2c2cccc(S(=O)(=O)O)c2)N1c1nc2ccccc2s1 (stereo not drawn) | – | – | – | > 100 | – | > 100 | – | > 100 | – | > 100 | – | > 100 | > 100 | > 100 | > 100 | –
13 | C=C1C(=O)[C@@]23CC[C@@H]4[C@@]5(C)CCC[C@@]4(OC5=O)[C@@]2(C)CC[C@@H]1C3 | – | 23.3 | – | 2.32 | – | 4.99 | – | – | – | – | – | – | 2.55 | 5.31 | 2.44 | –
14 | Cn1ncc2c(NCc3ccccc3)ncnc21 | – | > 100 | – | > 100 | – | > 100 | – | > 100 | – | > 100 | – | – | > 100 | – | > 100 | –
15 | CCCCOCCOC1=C(Cl)C(=O)c2c(O)ccc(O)c2C1=O | – | 6.65 | – | 1.36 | – | 2.47 | – | 0.387 | – | – | – | 0.525 | 0.505 | 3.08 | 1.81 | –
16 | COc1cccc2c1OC(c1cccc3ccccc13)C([N+](=O)[O-])=C2 (stereo not drawn) | – | 9.89 | – | 5.02 | – | 7.5 | – | – | – | 4.19 | – | 2.77 | 3.95 | 2.37 | 5.77 | –
17 | CN(C)Cc1cc(C(=O)/C=C/c2ccc([N+](=O)[O-])cc2)cc(CN(C)C)c1O | – | – | – | – | – | 35.6 | – | 27.1 | – | > 100 | – | 23.3 | 15.2 | 33.9 | 45.7 | –
18 | CC(C(=O)COCc1ccccc1)P1(=O)OC(C)(C)CN1C(C)(C)C (stereo not drawn) | – | > 100 | – | > 100 | – | – | – | > 100 | – | – | – | > 100 | > 100 | – | > 100 | –
19 | CC1(C)CCc2c(ccc(C(=O)/C=C/c3ccc(O)cc3)c2O)O1 | – | 74.6 | – | 15.8 | – | 19.9 | – | 24.4 | – | 75 | – | 20.7 | – | 17.8 | 20 | –
20 | COc1cc(C=O)ccc1O | – | – | – | > 100 | – | > 100 | – | > 100 | – | > 100 | – | > 100 | > 100 | > 100 | > 100 | –
21 | COc1cc2c(cc1OCCCCCN1CCN(c3ncnc4ccccc34)CC1)N=CC1CCCN1C2=O (stereo not drawn) | 0.0334 | 0.379 | 0.0292 | 1.17 | – | – | – | – | < 0.0174 | – | 0.032 | 0.128 | – | 0.154 | – | 0.0218
22 | C/C1=C\[C@H](C)C[C@H](C)OC(=O)[C@H](C)NC(=O)[C@@H](Cc2ccc(O)c(Br)c2)N(C)C(=O)[C@H](C)NC(=O)[C@@H](C)C1 | – | 2.04 | – | 0.0274 | – | 0.105 | – | > 25 | – | > 25 | – | > 25 | – | 24.6 | 0.269 | –
23 | CC(C)C1=CC23CCC4C(C)(C(=O)O)CCCC4(C)C2CC1C1C(=O)N(CCCCCCN2C(=O)C4C5CC6C7(C)CCCC(C)(C(=O)O)C7CCC6(C=C5C(C)C)C4C2=O)C(=O)C13 (stereo not drawn) | – | – | – | – | – | – | – | 33.4 | – | > 100 | – | 27.5 | – | 19 | 31 | –
24 | COC1OC2COC(c3ccccc3)OC2C(O)C1OC(=S)c1ccccc1 (stereo not drawn) | – | > 100 | – | 80.4 | – | > 100 | – | > 100 | – | > 100 | – | > 100 | – | 57.2 | > 100 | –
